The results in this text go back to US20040043959A1, “Combination therapies for treating methylthioadenosine phosphorylase deficient cells” (priority 2002, published 2004).

For this test, the target named is T1, Human MTAP (Homo sapiens, UniProt Q13126).
T1 construct: six-histidine tag (His6) (N); made in house; host or cells: E. coli BL21 DE3
T1 sequence (Q13126 1-283): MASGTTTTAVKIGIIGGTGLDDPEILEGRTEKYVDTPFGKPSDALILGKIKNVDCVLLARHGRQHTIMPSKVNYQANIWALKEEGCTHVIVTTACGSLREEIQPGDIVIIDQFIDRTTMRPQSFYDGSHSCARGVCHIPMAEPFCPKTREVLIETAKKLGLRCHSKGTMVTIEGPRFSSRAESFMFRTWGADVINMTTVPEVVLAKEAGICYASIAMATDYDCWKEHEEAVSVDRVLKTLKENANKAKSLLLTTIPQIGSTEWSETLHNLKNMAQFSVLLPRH
In words: MTAP substrate assay, coupled spectrophotometric (adenine, xanthine oxidase). To be noted: 2 nM MTAP; for activity at 50 µM: 10 min, compound 50 uM, relative to MTA at 50 uM, read-out: MT-A—50: initial velocity as a percentage of the initial velocity with MTA as substrate; for MT-A—10: initial velocity as a percentage of the initial velocity with MTA as substrate: compound 10 uM, relative to MTA at 10 uM. The test is classed as biochemical. The method, boiled down: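 Detection was xanthine oxidase-coupled (0.8 units/ml), reading adenine-derived absorbance at 305 nm over 10 min in potassium phosphate/DTT buffer at 37° C, with N-His6 enzyme purified from E. coli.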

As for `CC(C)n1c(O)nnc1SC[C@H]1O[C@@H](n2cnc3c(N)ncnc32)[C@H](O)[C@@H]1O` [2(G)(65), (2R, 3R, 4S, 5S)-2-(6-amino-9H-purin-9-yl)-5-{[(5-hydroxy-4-isopropyl-4H-1,2,4-triazol-3-yl)thio]methyl}tetrahydrofuran-3,4-diol], the activity at 50 µM worked out at 4% and the “MT-A—10: initial velocity as a percentage of the initial velocity with MTA as substrate” value was determined as 5%.
Regarding `CN(C)Cc1nnc(SC[C@H]2O[C@@H](n3cnc4c(N)ncnc43)[C@H](O)[C@@H]2O)n1C` [2(G)(66), (2R, 3R, 4S, 5S)-2-(6-amino-9H-purin-9-yl)-5-[({5-[(dimethylamino)-methyl]-4-methyl-4H-1,2,4-triazol-3-yl}thio)methyl]tetrahydro-furan-3,4-diol], the activity at 50 µM was found to be 6% and the “MT-A—10: initial velocity as a percentage of the initial velocity with MTA as substrate” value is 6%.
With `Cc1nnc(SC[C@H]2O[C@@H](n3cnc4c(N)ncnc43)[C@H](O)[C@@H]2O)n1C` [2(G)(67), (2R, 3R, 4S, 5S)-2-(6-amino-9H-purin-9-yl)-5-{[(4,5-dimethyl-4H-1,2,4-triazol-3-yl)thio]methyl}tetra-hydrofuran-3,4-diol], the activity at 50 µM was determined as 47% and the “MT-A—10: initial velocity as a percentage of the initial velocity with MTA as substrate” value was found to be 45%.
The corresponding values for `CCC(C)SC[C@H]1O[C@@H](n2cnc3c(N)ncnc32)[C@H](O)[C@@H]1O` (stereo partly drawn) [2(G)(68), (2R, 3R, 4S, 5S)-2-(6-amino-9H-purin-9-yl)-5-[(sec-butylthio)methyl]tetra-hydrofuran-3,4-diol] are 45% and 42%.
As for `Nc1ncnc2c1ncn2[C@@H]1O[C@H](CSc2cnccn2)[C@@H](O)[C@H]1O` [2(G)(69), (2R, 3R, 4S, 5S)-2-(6-amino-9H-purin-9-yl)-5-[(pyrazin-2-ylthio)methyl]tetrahydro-furan-3,4-diol], the activity at 50 µM was found to be 40% and the “MT-A—10: initial velocity as a percentage of the initial velocity with MTA as substrate” value came to 31%.
Take `Nc1ncnc2c1ncn2[C@@H]1O[C@H](CSc2ccccc2Br)[C@@H](O)[C@H]1O` [2(G)(70), (2R, 3R, 4S, 5S)-2-(6-amino-9H-purin-9-yl)-5-{[(2-bromophenyl)-thio]methyl}tetrahydro-furan-3,4-diol]: the activity at 50 µM is 3% and the “MT-A—10: initial velocity as a percentage of the initial velocity with MTA as substrate” value is reported as 6%.
For `CCC(C)CSC[C@H]1O[C@@H](n2cnc3c(N)ncnc32)[C@H](O)[C@@H]1O` (stereo partly drawn) [2(G)(71), (2R, 3R, 4S, 5S)-2-(6-amino-9H-purin-9-yl)-5-{[(2-methylbutyl)-thio]methyl}tetrahydro-furan-3,4-diol], the activity at 50 µM turned out to be 73% and the “MT-A—10: initial velocity as a percentage of the initial velocity with MTA as substrate” value stood at 77%.
For the compound `Nc1cccc(SC[C@H]2O[C@@H](n3cnc4c(N)ncnc43)[C@H](O)[C@@H]2O)c1` [2(G)(72), (2R, 3R, 4S, 5S)-2-(6-amino-9H-purin-9-yl)-5-{[(3-aminophenyl)thio]-methyl}tetrahydrofuran-3,4-diol], the activity at 50 µM was found to be 38% and the “MT-A—10: initial velocity as a percentage of the initial velocity with MTA as substrate” value was determined as 33%.
Turning to `Nc1ncnc2c1ncn2[C@@H]1O[C@H](CSCc2ccccc2Cl)[C@@H](O)[C@H]1O` [2(G)(73), (2R, 3R, 4S, 5S)-2-(6-amino-9H-purin-9-yl)-5-{[(2-chlorobenzyl)thio]-methyl}tetrahydrofuran-3,4-diol], the activity at 50 µM turned out to be 21% and the “MT-A—10: initial velocity as a percentage of the initial velocity with MTA as substrate” value was found to be 30%.
Regarding `Nc1ncnc2c1ncn2[C@@H]1O[C@H](CSCc2cccc(C(F)(F)F)c2)[C@@H](O)[C@H]1O` [2(G)(74)], the activity at 50 µM stood at 22% and the “MT-A—10: initial velocity as a percentage of the initial velocity with MTA as substrate” value came to 23%.
In the same order, the values of `Nc1ncnc2c1ncn2[C@@H]1O[C@H](CSCCCO)[C@@H](O)[C@H]1O` [2(G)(75)] are 39% and 32%.
In the same order, the values of `Nc1ncnc2c1ncn2[C@@H]1O[C@H](CSCc2ccc(Cl)cc2Cl)[C@@H](O)[C@H]1O` [2(G)(76), (2R, 3R, 4S, 5S)-2-(6-amino-9H-purin-9-yl)-5-{[(2,4-dichlorobenzyl)-thio]methyl}tetrahydro-furan-3,4-diol] are 11% and 14%.
As to `CCCC(CCO)SC[C@H]1O[C@@H](n2cnc3c(N)ncnc32)[C@H](O)[C@@H]1O` (stereo partly shown) [2(G)(77)], the activity at 50 µM is 6% and the “MT-A—10: initial velocity as a percentage of the initial velocity with MTA as substrate” value is reported as 3%.
Take `Nc1ncnc2c1ncn2[C@@H]1O[C@H](CSCCCCCCO)[C@@H](O)[C@H]1O` [2(G)(78)]: the activity at 50 µM turned out to be 6% and the “MT-A—10: initial velocity as a percentage of the initial velocity with MTA as substrate” value was 3%.
For the compound `Cc1csc(SC[C@H]2O[C@@H](n3cnc4c(N)ncnc43)[C@H](O)[C@@H]2O)n1` [2(G)(79), (2R, 3R, 4S, 5S)-2-(6-amino-9H-purin-9-yl)-5-{[(4-methyl-1,3-thiozol-2-yl)thio]methyl}tetrahydrofuran-3,4-diol], the activity at 50 µM was 45% and the “MT-A—10: initial velocity as a percentage of the initial velocity with MTA as substrate” value was determined as 38%.
Consider `CCc1ccc(SC[C@H]2O[C@@H](n3cnc4c(N)ncnc43)[C@H](O)[C@@H]2O)cc1` [2(G)(80)], for which the activity at 50 µM was 15% and the “MT-A—10: initial velocity as a percentage of the initial velocity with MTA as substrate” value was 13%.
In the same order, the values of `Nc1ncnc2c1ncn2[C@@H]1O[C@H](CSCCc2c[nH]c3ccccc23)[C@@H](O)[C@H]1O` [2(G)(81), (2R, 3R, 4S, 5S)-2-(6-amino-9H-purin-9-yl)-5-({[2-(1H-indol-3-yl)ethyl]thio}methyl)-tetrahydrofuran-3,4-diol] are 18% and 18%.
Turning to `Nc1ncnc2c1ncn2[C@@H]1O[C@H](CSc2ccccc2C(F)(F)F)[C@@H](O)[C@H]1O` [2(G)(82), (2R, 3R, 4S, 5S)-2-(6-amino-9H-purin-9-yl)-5-({[2-(trifluoromethyl)-phenyl]thio}methyl)tetra-hydrofuran-3,4-diol], the activity at 50 µM worked out at 1% and the “MT-A—10: initial velocity as a percentage of the initial velocity with MTA as substrate” value is 1%.
With `COc1ccc(CSC[C@H]2O[C@@H](n3cnc4c(N)ncnc43)[C@H](O)[C@@H]2O)c(OC)c1` [2(G)(83), (2R, 3R, 4S, 5S)-2-(6-amino-9H-purin-9-yl)-5-{[(2,4-dimethoxybenzyl)-thio]methyl}tetrahydro-furan-3,4-diol], the activity at 50 µM worked out at 8% and the “MT-A—10: initial velocity as a percentage of the initial velocity with MTA as substrate” value is 5%.
In the same order, the values of `Cc1cc(N)c(SC[C@H]2O[C@@H](n3cnc4c(N)ncnc43)[C@H](O)[C@@H]2O)cc1C` [2(G)(84)] are 5% and 4%.
The corresponding values for `Nc1ncnc2c1ncn2[C@@H]1O[C@H](CSc2nc3cccnc3s2)[C@@H](O)[C@H]1O` [2(G)(85), (2R, 3R, 4S, 5S)-2-(6-amino-9H-purin-9-yl)-5-[([1,3]thiozolo[5,4-b]pyridin-2-ylthio)-methyl]tetrahydrofuran-3,4-diol] are 2% and 10%.
As for `COc1ccc2sc(SC[C@H]3O[C@@H](n4cnc5c(N)ncnc54)[C@H](O)[C@@H]3O)nc2c1` [2(G)(86), (2R, 3R, 4S, 5S)-2-(6-amino-9H-purin-9-yl)-5-{[(5-methoxy-1,3-benzothiozol-2-yl)thio]-methyl}tetrahydro-furan-3,4-diol], the activity at 50 µM turned out to be 33% and the “MT-A—10: initial velocity as a percentage of the initial velocity with MTA as substrate” value is 31%.
Take `Nc1ncnc2c1ncn2[C@@H]1O[C@H](CSc2cccs2)[C@@H](O)[C@H]1O` [2(G)(87), (2R, 3R, 4S, 5S)-2-(6-amino-9H-purin-9-yl)-5-[(2-thienylthio)methyl]-tetrahydrofuran-3,4-diol]: the activity at 50 µM turned out to be 33% and the “MT-A—10: initial velocity as a percentage of the initial velocity with MTA as substrate” value is 36%.
As for `CCOC(=O)CSC[C@H]1O[C@@H](n2cnc3c(N)ncnc32)[C@H](O)[C@@H]1O` [2(G)(88), ethyl ({[(2S, 3S, 4R, 5R)-5-(6-amino-9H-purin-9-yl)-3,4-dihydroxytetrahydro-furan-2-yl]methyl}thio)acetate], the activity at 50 µM was 33% and the “MT-A—10: initial velocity as a percentage of the initial velocity with MTA as substrate” value is 25%.
In the case of `N#Cc1cccnc1SC[C@H]1O[C@@H](n2cnc3c(N)ncnc32)[C@H](O)[C@@H]1O` [2(G)(89), 2-({[(2S, 3S, 4R, 5R)-5-(6-amino-9H-purin-9-yl)-3,4-dihydroxytetrahydro-furan-2-yl]methyl}thio)nicotinonitrile], the activity at 50 µM worked out at 5% and the “MT-A—10: initial velocity as a percentage of the initial velocity with MTA as substrate” value is 3%.
In the same order, the values of `Nc1ncnc2c1ncn2[C@@H]1O[C@H](CSc2cccc(C(=O)O)c2)[C@@H](O)[C@H]1O` [2(G)(90), 3-({[(2S, 3S, 4R, 5R)-5-(6-amino-9H-purin-9-yl)-3,4-dihydroxytetrahydro-furan-2-yl]methyl}thio)benzoic acid] are 8% and 3%.
